# According to ChEMBL document CHEMBL1201862, “PubChem BioAssay data set” (2004):
# Calls of active or inactive are those of the source.
# What was measured:
# [1] = target: Glucose-6-phosphate 1-dehydrogenase (Homo sapiens, UniProt P11413); assay: inhibition of Homo sapiens G6PD, dose series – biochemical, fluorescence, selectivity assay for P. falciparum G6PD inhibitor project, dose response (AID 504792); assay type: functional
# [2] = target: Glutathione-S-transferase (Schistosoma japonicum, UniProt Q26513); assay: GST-antibody interaction or FRET quenching – biochemical, TR-FRET, artefact control for Vif-APOBEC3G degradation inhibitor project, dose response (AID 1117362); assay type: functional
# [3] = non-specific 3'UTR reporter inhibition in Clone20-Shn3RL – cell-based, Renilla luciferase, cherry-picked, counter-screen for Shn3 inhibitor project, dose response (AID 624133); assay type: functional
# [4] = target: Nonstructural protein 1 (Influenza A virus, UniProt Q194T2); assay type: functional, Influenza A virus (A/California/07/2009(H1N1))
# [5] = target: Genome polyprotein (dengue virus type 2, UniProt P29990); assay: flavivirus cap methylation enzyme inhibition – biochemical, confirmation dose response, primary screen (AID 588689); assay type: functional
# [6] = target: C-C chemokine receptor type 6 (Homo sapiens, UniProt P51684); assay: antagonism of CCR6 beta-arrestin recruitment – cell-based, luminescent beta-arrestin readout, dose response (AID 504728); assay type: functional
# [7] = reduction of Shn3 3'UTR-driven luciferase in osteoblasts – cell-based, Clone20 osteoblasts, firefly luciferase, cherry-picked, dose response (AID 624132); assay type: functional;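 note: firefly luciferase luminescence from reporter carrying the Shn3 3'UTR in osteoblasts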
# [8] = viability loss in THP-1 monocytes – THP-1 cells, cytotoxicity control for Vif-APOBEC3G degradation inhibitor project, dose response (AID 1117359); assay type: functional; details: THP-1
# [9] = loss of viability in HepG2 cells – cell-based, CellTiter-Glo, cherry-picked, cytotoxicity control for Shn3 inhibitor project, dose response (AID 624134); assay type: functional
# [10] = target: Beta-galactosidase (Escherichia coli, UniProt Q8VNN2); assay: detection-enzyme interference by beta-gal modulators – biochemical, E. coli enzyme, set 3, artefact control for CCR6 antagonist project, dose response (AID 504712); assay type: functional
# [11] = test system: Vero; assay: viability of Vero cells under compound – cytotoxicity control for flavivirus capping enzyme inhibitors (AID 588742); assay type: functional; details: Chlorocebus sabaeus
# [12] = HGIII-sPLA2 enzyme inhibition potency – biochemical, QFRET, IC50, dose response (AID 743457);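 note: green fluorescence rise as the enzyme cleaves BODIPY PC-A2 in liposomes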
# [13] = test system: HeLa; assay: viability loss in HeLa cells – cell-based, 24 h, cherry-picked samples, cytotoxicity control, dose response (AID 504726); assay type: functional; details: Homo sapiens;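 note: potency for cytotoxicity as loss of luminescence signal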
# [14] = target: T1, Corticotropin-releasing factor receptor 2/Corticotropin-releasing factor-binding protein (Homo sapiens, UniProt P24387+Q13324); assay: activators of CRF receptor 2 with binding protein – uHTS hits, confirmation (AID 602473); assay type: functional; details: read-out: EC50_Mean
# T1 sequence (Q13324 whole entry): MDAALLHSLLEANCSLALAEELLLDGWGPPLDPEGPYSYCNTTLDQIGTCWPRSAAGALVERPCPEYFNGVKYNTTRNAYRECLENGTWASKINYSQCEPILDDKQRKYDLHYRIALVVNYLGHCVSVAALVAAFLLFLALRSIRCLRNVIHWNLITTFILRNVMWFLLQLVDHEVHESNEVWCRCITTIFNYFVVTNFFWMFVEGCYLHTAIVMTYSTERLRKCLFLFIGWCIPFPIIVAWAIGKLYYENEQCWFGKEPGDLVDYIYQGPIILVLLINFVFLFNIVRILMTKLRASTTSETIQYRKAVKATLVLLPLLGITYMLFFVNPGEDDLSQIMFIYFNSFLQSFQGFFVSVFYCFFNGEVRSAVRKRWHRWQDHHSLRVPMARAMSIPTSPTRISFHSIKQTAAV
# T1 sequence (P24387 whole entry): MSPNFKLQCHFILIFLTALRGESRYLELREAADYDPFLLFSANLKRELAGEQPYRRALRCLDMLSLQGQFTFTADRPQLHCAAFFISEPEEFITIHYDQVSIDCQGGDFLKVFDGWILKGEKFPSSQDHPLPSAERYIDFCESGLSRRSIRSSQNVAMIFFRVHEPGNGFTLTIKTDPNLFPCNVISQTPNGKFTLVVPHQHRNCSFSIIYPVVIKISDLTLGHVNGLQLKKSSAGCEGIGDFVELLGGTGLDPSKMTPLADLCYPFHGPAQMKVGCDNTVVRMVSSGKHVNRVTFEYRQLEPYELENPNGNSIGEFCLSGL
# [15] = target: T2, Short transient receptor potential channel 4 (Mus musculus, UniProt Q9QUQ5); assay: block of DAMGO-driven TRPC4 calcium entry – cell-based, HEK293 TRPC4/mu-opioid, Fluo-4 calcium, dose response (AID 434942); assay type: functional;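 note: potency of inhibitors blocking the TRPC4 calcium response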
# T2 sequence (Q9QUQ5 whole entry): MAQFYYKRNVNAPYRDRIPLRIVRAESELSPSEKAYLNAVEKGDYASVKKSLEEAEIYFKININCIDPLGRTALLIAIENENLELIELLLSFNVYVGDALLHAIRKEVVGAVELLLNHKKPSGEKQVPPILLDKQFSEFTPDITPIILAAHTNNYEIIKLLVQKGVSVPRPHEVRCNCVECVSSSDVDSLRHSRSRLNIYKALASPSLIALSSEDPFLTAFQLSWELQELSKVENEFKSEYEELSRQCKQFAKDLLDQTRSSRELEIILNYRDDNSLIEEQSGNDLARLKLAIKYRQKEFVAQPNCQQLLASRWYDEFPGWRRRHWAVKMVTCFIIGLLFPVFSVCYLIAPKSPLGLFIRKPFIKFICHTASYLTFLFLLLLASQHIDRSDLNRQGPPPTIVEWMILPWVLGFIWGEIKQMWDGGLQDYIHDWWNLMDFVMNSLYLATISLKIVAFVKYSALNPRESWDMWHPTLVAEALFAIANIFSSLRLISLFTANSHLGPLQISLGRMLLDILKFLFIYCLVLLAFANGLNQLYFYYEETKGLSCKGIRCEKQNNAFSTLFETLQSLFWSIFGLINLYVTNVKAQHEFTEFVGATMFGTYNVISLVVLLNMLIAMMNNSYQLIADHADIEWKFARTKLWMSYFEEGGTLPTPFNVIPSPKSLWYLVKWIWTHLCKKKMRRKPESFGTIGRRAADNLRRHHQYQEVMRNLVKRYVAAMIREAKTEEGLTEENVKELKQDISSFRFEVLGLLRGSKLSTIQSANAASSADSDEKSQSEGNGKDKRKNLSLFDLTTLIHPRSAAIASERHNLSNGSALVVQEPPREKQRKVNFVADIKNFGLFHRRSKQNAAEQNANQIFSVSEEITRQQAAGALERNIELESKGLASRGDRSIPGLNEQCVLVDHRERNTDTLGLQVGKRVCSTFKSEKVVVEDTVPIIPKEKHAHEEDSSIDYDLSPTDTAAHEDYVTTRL
# [16] = target: T3, Heat shock factor protein 1 (Mus musculus, UniProt P38532); assay: decrease of HSF1-responsive luciferase luminescence – cell-based, NIH3T3, dose retest, confirmation (AID 2382); assay type: functional;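 note: NIH3T3 fibroblasts with HSF1-driven luciferase reporter stressed by proteasome inhibitor MG132; luminescence from HSF1-driven luciferase expression after 8 hours of MG132 stress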
# T3 sequence (P38532 whole entry): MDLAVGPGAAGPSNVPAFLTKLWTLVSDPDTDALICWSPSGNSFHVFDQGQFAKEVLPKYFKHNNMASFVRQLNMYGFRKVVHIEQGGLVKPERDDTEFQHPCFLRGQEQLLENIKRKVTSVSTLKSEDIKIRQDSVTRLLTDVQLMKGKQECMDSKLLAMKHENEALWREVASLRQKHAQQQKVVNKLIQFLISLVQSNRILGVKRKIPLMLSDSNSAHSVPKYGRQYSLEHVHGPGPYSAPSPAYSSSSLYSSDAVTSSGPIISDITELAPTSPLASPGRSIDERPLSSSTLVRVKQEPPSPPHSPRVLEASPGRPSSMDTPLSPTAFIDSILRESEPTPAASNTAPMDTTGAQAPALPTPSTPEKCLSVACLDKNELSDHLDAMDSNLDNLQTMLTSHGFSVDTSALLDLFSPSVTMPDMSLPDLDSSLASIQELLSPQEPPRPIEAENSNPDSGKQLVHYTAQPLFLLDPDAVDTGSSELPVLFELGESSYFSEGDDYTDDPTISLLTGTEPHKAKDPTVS
# [17] = test system: HT-1080; assay: HT1080 cell viability loss – fluorescence readout (AID 620); assay type: functional, cell-based; details: Homo sapiens
# [18] = target: Luciferin 4-monooxygenase (Photinus pyralis, UniProt P08659); assay: Counter Screen for Luciferase-based Assay Positives. [Related pubchem assays: 620, 618, 411 ]
# [19] = Luminescence-based counterscreen assay for KLF5 inhibitors: dose response cell-based high throughput screening assay to identify cytotoxic compounds using the IEC-6 intestinal epithelial cell line. [Related pubchem assays: 1700 (Primary screen.), 1834 (Confirmation screen.), 1858 (Summary AID.), 1905 (Counterscreen.)]; assay type: functional
# [20] = target: X-box-binding protein 1 (Homo sapiens, UniProt P17861); assay type: functional, Cricetulus griseus;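 note: confirmatory dose-response counter-screen serving a CHOP assay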
# [21] = test system: BJ; assay: BJ-TERT fibroblast viability loss – cell-based, RAS-independent, luminescence, dose response (AID 1933); assay type: functional; details: Homo sapiens
# [22] = test system: BJ; assay: cells; assay type: functional, cell-based; details: Homo sapiens
# [23] = A Cell Based Secondary Assay To Explore Cytotoxicity of Compounds that Sensitize Mycobacterium Tuberculosis to Beta-Lactam Antibiotics.; assay type: functional
# [24] = DRD fibroblast viability loss – cell-based, non-viral oncogenic, luminescence, dose response (AID 1934); assay type: functional; details: Homo sapiens
# [25] = test system: BJ; assay: BJ-TERT-LT-ST fibroblast viability loss – cell-based, RAS-independent, luminescence, dose response (AID 1935); assay type: functional; details: Homo sapiens;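 note: BJ fibroblasts immortalized with TERT plus LT and ST oncogenes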
# [26] = test system: INS1; assay: INS-1E survival protection against cytokine death – cell-based, luminescence, retest, dose response (AID 449756); assay type: functional; details: Rattus norvegicus;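 note: cell death triggered by IL-1 beta plus TNF-alpha plus IFN-gamma mixture; protective hits raise ATP signal compared with cytokine alone wells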
# Luciferin 4-monooxygenase, sequence (P08659 whole entry): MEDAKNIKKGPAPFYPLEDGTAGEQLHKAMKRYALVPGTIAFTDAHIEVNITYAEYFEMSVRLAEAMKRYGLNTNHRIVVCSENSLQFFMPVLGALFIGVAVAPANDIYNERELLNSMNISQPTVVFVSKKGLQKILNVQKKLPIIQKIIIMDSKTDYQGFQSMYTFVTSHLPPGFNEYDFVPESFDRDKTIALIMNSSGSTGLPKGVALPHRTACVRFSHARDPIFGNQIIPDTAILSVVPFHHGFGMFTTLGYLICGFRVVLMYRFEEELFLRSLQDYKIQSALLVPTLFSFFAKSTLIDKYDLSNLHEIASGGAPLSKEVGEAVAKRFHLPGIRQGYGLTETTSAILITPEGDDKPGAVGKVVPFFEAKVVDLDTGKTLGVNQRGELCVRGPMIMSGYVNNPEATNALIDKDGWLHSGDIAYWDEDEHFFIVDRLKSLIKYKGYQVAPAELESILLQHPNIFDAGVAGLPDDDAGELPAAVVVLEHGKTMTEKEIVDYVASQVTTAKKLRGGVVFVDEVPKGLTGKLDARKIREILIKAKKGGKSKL
# C-C chemokine receptor type 6, sequence (P51684 whole entry): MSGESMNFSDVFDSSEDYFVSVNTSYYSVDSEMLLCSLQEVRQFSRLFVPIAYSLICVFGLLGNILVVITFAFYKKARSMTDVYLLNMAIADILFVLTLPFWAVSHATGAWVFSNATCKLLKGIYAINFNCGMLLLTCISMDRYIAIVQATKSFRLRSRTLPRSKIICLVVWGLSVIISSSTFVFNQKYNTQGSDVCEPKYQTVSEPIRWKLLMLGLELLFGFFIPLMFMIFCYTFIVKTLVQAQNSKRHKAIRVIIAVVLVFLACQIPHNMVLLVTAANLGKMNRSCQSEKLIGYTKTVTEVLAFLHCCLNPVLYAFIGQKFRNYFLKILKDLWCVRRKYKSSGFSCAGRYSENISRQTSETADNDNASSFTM
# X-box-binding protein 1, sequence (P17861 whole entry): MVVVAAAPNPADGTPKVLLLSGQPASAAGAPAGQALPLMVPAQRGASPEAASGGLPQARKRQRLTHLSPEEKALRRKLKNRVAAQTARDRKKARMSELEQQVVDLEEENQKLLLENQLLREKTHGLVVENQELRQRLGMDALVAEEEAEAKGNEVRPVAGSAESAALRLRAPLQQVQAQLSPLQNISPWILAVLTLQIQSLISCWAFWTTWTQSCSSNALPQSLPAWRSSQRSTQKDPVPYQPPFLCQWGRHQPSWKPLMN
# Beta-galactosidase, sequence (Q8VNN2 whole entry): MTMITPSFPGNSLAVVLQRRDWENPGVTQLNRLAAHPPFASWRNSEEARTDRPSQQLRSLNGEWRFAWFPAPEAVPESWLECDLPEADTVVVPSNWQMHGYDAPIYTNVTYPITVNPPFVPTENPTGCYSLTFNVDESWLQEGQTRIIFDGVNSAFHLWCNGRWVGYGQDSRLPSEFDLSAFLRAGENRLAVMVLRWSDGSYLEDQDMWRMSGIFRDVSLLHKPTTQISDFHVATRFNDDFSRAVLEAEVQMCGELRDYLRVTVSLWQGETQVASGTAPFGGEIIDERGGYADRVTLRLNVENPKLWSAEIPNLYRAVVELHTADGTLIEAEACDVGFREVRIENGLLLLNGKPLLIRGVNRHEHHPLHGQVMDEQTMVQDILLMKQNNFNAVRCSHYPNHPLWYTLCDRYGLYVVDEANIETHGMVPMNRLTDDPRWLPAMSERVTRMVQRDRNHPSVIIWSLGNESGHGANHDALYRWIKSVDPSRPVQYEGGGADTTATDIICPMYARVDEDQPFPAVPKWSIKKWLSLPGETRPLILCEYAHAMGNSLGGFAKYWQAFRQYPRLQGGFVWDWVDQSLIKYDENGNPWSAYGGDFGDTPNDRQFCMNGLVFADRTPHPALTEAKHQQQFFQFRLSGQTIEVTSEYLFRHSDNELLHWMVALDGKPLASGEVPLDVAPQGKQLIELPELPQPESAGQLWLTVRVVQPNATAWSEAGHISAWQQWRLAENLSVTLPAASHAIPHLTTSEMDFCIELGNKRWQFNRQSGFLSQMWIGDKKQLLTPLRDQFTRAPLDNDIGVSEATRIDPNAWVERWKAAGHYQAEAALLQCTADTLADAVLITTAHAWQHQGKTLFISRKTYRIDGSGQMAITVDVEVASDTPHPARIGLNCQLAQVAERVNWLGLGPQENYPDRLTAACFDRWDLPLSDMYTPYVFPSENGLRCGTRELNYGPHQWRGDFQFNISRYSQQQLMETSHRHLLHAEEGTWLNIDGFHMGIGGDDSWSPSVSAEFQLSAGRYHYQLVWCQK
# Genome polyprotein, sequence (P29990 2492-3391 limits assumed): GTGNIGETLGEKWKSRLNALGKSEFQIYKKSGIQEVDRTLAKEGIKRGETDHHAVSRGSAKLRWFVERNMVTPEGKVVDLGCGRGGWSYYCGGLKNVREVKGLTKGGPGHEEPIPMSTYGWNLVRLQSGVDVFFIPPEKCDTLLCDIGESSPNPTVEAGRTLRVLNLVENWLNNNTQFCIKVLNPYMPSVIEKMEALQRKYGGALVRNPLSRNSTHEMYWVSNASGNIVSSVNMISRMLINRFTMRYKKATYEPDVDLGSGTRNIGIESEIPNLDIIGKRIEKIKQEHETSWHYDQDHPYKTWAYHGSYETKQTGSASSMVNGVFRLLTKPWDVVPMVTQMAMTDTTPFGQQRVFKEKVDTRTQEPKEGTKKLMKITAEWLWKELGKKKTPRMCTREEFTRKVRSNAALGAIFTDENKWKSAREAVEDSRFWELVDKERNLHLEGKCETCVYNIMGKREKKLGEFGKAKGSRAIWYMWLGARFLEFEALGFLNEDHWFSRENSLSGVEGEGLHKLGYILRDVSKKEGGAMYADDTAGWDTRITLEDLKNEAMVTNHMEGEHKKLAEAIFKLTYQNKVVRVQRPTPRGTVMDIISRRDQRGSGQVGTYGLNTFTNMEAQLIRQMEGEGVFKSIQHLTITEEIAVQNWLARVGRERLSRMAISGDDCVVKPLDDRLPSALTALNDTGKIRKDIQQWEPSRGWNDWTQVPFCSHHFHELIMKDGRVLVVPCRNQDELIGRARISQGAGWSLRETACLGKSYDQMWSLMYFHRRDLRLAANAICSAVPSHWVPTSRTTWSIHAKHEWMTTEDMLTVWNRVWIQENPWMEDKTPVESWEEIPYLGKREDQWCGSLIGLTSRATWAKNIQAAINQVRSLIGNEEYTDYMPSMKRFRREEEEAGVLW
# Nonstructural protein 1, sequence (Q194T2 whole entry): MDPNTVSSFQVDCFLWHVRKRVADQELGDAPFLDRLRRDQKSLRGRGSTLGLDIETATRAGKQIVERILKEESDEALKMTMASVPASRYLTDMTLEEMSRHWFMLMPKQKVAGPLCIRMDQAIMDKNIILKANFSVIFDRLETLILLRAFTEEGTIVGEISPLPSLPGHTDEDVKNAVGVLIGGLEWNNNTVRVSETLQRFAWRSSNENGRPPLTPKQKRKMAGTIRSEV
# Glutathione-S-transferase, sequence (Q26513 whole entry): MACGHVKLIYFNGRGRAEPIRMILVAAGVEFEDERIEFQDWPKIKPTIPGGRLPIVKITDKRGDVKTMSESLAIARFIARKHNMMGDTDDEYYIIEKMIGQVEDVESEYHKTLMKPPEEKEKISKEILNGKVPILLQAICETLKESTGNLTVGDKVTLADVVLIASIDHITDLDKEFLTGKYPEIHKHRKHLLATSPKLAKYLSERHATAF
# Glucose-6-phosphate 1-dehydrogenase, sequence (P11413 whole entry): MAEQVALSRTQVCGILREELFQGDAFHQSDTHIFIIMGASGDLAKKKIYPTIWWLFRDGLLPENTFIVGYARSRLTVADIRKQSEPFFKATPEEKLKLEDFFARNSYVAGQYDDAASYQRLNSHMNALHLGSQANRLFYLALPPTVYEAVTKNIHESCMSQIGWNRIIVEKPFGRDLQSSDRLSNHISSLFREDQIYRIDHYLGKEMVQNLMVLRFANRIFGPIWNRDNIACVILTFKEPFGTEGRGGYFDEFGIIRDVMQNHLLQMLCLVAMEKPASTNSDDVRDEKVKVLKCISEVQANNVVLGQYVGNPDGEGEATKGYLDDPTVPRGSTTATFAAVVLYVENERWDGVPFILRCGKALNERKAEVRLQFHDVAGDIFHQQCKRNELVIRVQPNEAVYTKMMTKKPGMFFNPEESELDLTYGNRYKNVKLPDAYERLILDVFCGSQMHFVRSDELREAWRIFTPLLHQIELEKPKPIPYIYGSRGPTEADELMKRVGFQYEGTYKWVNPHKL
smiles,measurement,setting,value
CN(C)c1ccc(/C=c2\c3cc([N+](=O)[O-])ccc3n3c2cc(-c2ccccc2)[n+]3C)cc1,IC50,[1],28.3 µM (inactive)
same,IC50,[2],5.79 µM (active)
same,AC50,[3],5.6 µM (active)
same,IC50,[4],4.31 µM (active)
same,IC50,[5],11.8 µM (active)
same,IC50,[6],31.9 µM (inactive)
same,AC50,[7],3.3 µM (active)
same,CC50,[8],1.48 µM (active)
same,AC50,[9],14.6 µM (active)
same,IC50,[10],> 66.6 µM (inactive)
same,CC50,[11],34.8 µM (active)
same,IC50,[12],6.13 µM (active)
N=c1ccn(Cc2ccc(Cl)cc2)cc1,AC50,[13],16.4 µM (active)
O=C(c1ccc2c(c1)OCO2)C1CCCN(Cc2cc(F)ccc2-n2cccn2)C1 (centres undefined),EC50,[14],> 53 µM (inactive)
same,EC50,[15],5.96 µM (active)
O=C(CCCc1ccccc1)c1ccc2c(c1)OCCO2,EC50,[16],< 0.16 µM (active)
same,EC50,[17],> 50 µM (not active)
same,EC50,[18],< 0.2 µM (active)
same,IC50,[19],> 39.8 µM (not active)
Cc1c(C(=O)NC2=NCCS2)oc2ccccc12,EC50,[17],> 50 µM (not active)
same,EC50,[18],2.67 µM (active)
COc1cc(-c2nc3c(c(C)nn3-c3ccccc3)c3cc(OC)c(OC)cc23)ccc1O,Absolute IC50 (XBP1),[20],10 µM
COc1nc(Nc2nc(O)c3ccccc3n2)nc2ccc(C)cc12,EC50,[21],2.6 µM (active)
same,EC50,[22],2.93 µM (active)
same,CC50,[23],3.83 µM (active)
same,EC50,[24],2.3 µM (active)
same,EC50,[25],2.88 µM (inconclusive)
same,AC50,[26],1.31 µM (active)
Cc1ccc(-c2[nH]c3ccccc3c2SCCN)cc1,EC50,[15],4.73 µM (active)
